Results reported in US20240300959A1, “BALASUBRAMIDE DERIVATIVE AND USE THEREOF IN PREPARATION OF MEDICINE FOR TREATING ACUTE LUNG INJURY” (Guangdong Pharmaceutical University, priority 2023, published 2024).
Where “and” joins values, the source holds several entries; their conditions need not be identical. Equal values may be shown once.

What was measured:
RAW264.7 cells = assay: Cytotoxicity test, CCK-8 cell viability of RAW264.7 cells (24 h); type: cell-based, mice; settings: 10 μM, RAW264.7 cell viability
Protocol: RAW264.7 cells were inoculated into a 96-well plate at a density of 1×10^5 per well. When the cell density was 70%-80%, the RAW264.7 cells were pretreated with 10 mM working solutions prepared from 18 balasubramide derivatives at a final concentration of 10 μM for 24 h, and then the cell viability was determined by a CCK-8 method.

[1] = tested on: mice with acute lung injury caused by intratracheal instillation of lipopolysaccharide; assay: Survival rate of mice with acute lung injury caused by intratracheal instillation of LPS; type: in vivo, ICR mice; settings: 50 mg/kg, LPS 20 mg/kg it, checked up to 72 h
Protocol: Grouping and administration of animals: 45 male ICR mice were randomly divided into 5 groups according to the body weight, including a control group, a model group, a positive dexamethasone (5 mg/kg) group, a (+)3C-20 (10 mg/kg) group and a (+)3C-20 (50 mg/kg) group, with 9 mice in each group. Drug preparation, an administration method and a modeling method were the same as those in Example 7. With the time of intratracheal instillation of LPS as 0 h, the survival state of the mice was checked at the time points of 4 h, 12 h, 16 h, 20 h, 24 h, 36 h, 48 h, 60 h and 72 h, and a survival curve was drawn based on statistics. Results are shown in FIG. 13 (where compared with LPS (20 mg/kg), ***P is less than 0.001).

[2] = tested on: mice with sepsis and lung injury caused by intraperitoneal injection of lipopolysaccharide; assay: Acute lung injury caused by sepsis (intraperitoneal injection of lipopolysaccharide); type: in vivo, ICR mice; settings: for Content of TNF-α in serum (% of Model) / Area percentage of alveolar cells (%): 6 h after i.p. LPS; for Area percentage of alveolar cells (%): H&E lung sections; for Change multiple of IL-1β / Change multiple of IL-6 / Change multiple of TNF-α / Change multiple of iNOS: lung tissue RT-PCR; for Lung index (%): 6 h after i.p. LPS 10 mg/kg; for Body weight (Day 1) / Body weight (Day 2) / Body weight (Day 3): i.p. LPS sepsis model, in g (unit assumed)
Protocol: Administration and grouping of animals: Male ICR mice were used as experimental animals, which were randomly divided into a control group, a model group, a positive administration group and administration groups according to the body weight. The control group and the model group were administered with a solvent by intraperitoneal injection (the solvent was prepared from DMSO, Kolliphor HS15 and Saline at a ratio of 1:2:7), the positive administration group was administered with 5 mg/kg dexamethasone (DEX) by intraperitoneal injection, and the administration groups were administered with (+)3C-20 at a concentration of 10 mg/kg and 50 mg/kg, respectively, by intraperitoneal injection. The dexamethasone and the (+)3C-20 were dissolved in the above solvent and were clear and transparent. The administration was continued for 3 days. 2 h after the last administration, all the other groups were administered with LPS (10 mg/kg) by intraperitoneal injection while the control group was administered with an equal volume of normal saline by intraperitoneal injection. Body weight and lung index: The mice were weighed and randomly divided on day 1 and continuously weighed for 3 days before administration, and growth conditions of the mice were measured by statistics. The mice were administered with LPS by intraperitoneal injection 2 h after administration on day 3, then the mice were dissected 6 h later, and the lungs were taken, weighed and recorded.
On day 3, 6 h after the intraperitoneal injection of LPS, whole blood was collected from eye sockets and then subjected to centrifugation to prepare serum, and the serum was frozen at −80° C. The lungs were subjected to perfusion with PBS and fixed by paraformaldehyde, and the fixed lungs were stained with hematoxylin-eosin (H&E) after dehydration, paraffin embedding and sectioning. The serum was tested by a commercial TNF-α ELISA kit. Histopathological results and data statistics are shown in FIG. 7-1, FIG. 7-2 and Table 7.
A small amount of frozen lung tissues were taken and fully ground, and the expression of inflammation related genes in the lung tissues was detected by an RT-PCR technology according to an operation instruction of an RNA extraction kit.

[3] = tested on: TNF-α in bone marrow derived macrophages (BMDMs) stimulated by lipopolysaccharide; assay: TNF-α ELISA in LPS-stimulated bone marrow derived macrophages; type: cell-based, C57BL/6J mice; settings: for Percentage of TNF-α in a model group (%): LPS 100 ng/mL 3 h
Protocol: (§1) (1) Collection of bone marrow derived macrophages (BMDMs): C57BL/6J mice were sacrificed by dislocation of cervical vertebra, completely soaked and sterilized with 75% ethanol and placed faceup on a mouse board to fix the four limbs, the skin of the hind limbs was cut, the limbs were cut at ankle joints and femoral joints, and muscles and knee joints were removed. Precooled serum-free DMEM was sucked with a 1 mL syringe to rinse the bone marrow until a leg bone turned white, a rinsing solution was filtered with a 200-mesh filter membrane and then collected into a 15 mL centrifuge tube, centrifugation was performed at 500×g for 5 min, a supernatant was discarded, and a cell precipitate was resuspended with 1 mL of a red blood cell lysis buffer. After stomatocytosis was performed for 1 min, 5 mL of DMEM was added to stop the stomatocytosis, centrifugation was performed at 500×g for 5 min, a supernatant was discarded, and cells at a lower layer were resuspended overnight with DMEM containing 10% of FBS. Monocytes were collected by centrifugation and then resuspended with a DMEM culture medium containing 20% of FBS, and M-CSF was added at a final concentration of 25 ng/mL. The cells were inoculated into a 96-well plate at a density of 6×10^5, cultured in a cell incubator with a CO2 concentration of 5% at 37° C. for 48 h, and then cultured by adding M-CSF with a final concentration of 25 ng/mL into each well for 48 h until the monocytes were subjected to adherent culture and differentiation to obtain macrophages.
(§2) The expression level of an inflammatory factor TNF-α in a cell supernatant was detected according to an operation instruction of a commercial ELISA kit, and the cell viability at different administration concentrations of (+)3C-20 was determined according to an operation instruction of a CCK-8 kit.

[4] = tested on: bone marrow derived macrophages (BMDMs); assay: CCK-8 cell viability of bone marrow derived macrophages; type: cell-based, C57BL/6J mice; settings: BMDM cell viability
Protocol: as §1, §2

## O=C(CCc1ccc(C(F)(F)F)cc1)O[C@@H]1C(=O)NCCc2c([nH]c3ccccc23)[C@H]1c1ccc(C(F)(F)F)cc1 [(+)-3C-20]
RAW264.7 cells
  Percentage of CCK-8 in a model group (%): 103.97 ± 3.88% and 95.04 ± 3.22%
[1]
  survival rate of the model mice, in words: can obviously improve the survival rate
[2]; 10 mg/kg i.p.
  Content of TNF-α in serum (% of Model): 78.38 ± 11.32 ^ % of Model
  Area percentage of alveolar cells (%): 38.68 ± 3.73%
[2]; 10 mg/kg i.p., i.p. LPS
  Change multiple of IL-1β: 9.68 ± 0.67
  Change multiple of IL-6: 47.5 ± 7.38
  Change multiple of TNF-α: 10.58 ± 1.72
  Change multiple of iNOS: 12.44 ± 1.28 ^
[2]; 10 mg/kg intraperitoneal 3 days
  Lung index (%): 0.714 ± 0.02 ^ %
[2]; 10 mg/kg intraperitoneal
  Body weight (Day 1): 25.42 ± 1.1
  Body weight (Day 2): 25.46 ± 1.2
  Body weight (Day 3): 25.77 ± 1.03
[2]; 50 mg/kg i.p.
  Content of TNF-α in serum (% of Model): 55.06 ± 5.96 % of Model
  Area percentage of alveolar cells (%): 30.43 ± 2.41 %
[2]; 50 mg/kg i.p., i.p. LPS
  Change multiple of IL-1β: 10.13 ± 1.72
  Change multiple of IL-6: 13.73 ± 1.56
  Change multiple of TNF-α: 5.55 ± 0.86
  Change multiple of iNOS: 5.42 ± 1.02
[2]; 50 mg/kg intraperitoneal 3 days
  Lung index (%): 0.672 ± 0.014 %
[2]; 50 mg/kg intraperitoneal
  Body weight (Day 1): 25.34 ± 0.57
  Body weight (Day 2): 26.16 ± 1.22
  Body weight (Day 3): 27.01 ± 1.08
[2]; 50 mg/kg, i.p. LPS
  pathological lung injury compared with the model group, in words: obviously relieving pathological lung injury
[3]; 0.1 μM
  Percentage of TNF-α in a model group (%): 88.17 ± 7.91%
[3]; 1 μM
  Percentage of TNF-α in a model group (%): 86.35 ± 7.41%
[3]; 2.5 μM
  Percentage of TNF-α in a model group (%): 62.94 ± 8.54 %
[3]; 5 μM
  Percentage of TNF-α in a model group (%): 35.12 ± 4.63 %
[3]; LPS
  effective dose for inhibiting the expression of TNF-α for the BMDMs: 2.5 μM or 5 μM
[4]; 0.1 μM
  Percentage of CCK-8 in a model group (%): 100.35 ± 3.74%
[4]; 1 μM
  Percentage of CCK-8 in a model group (%): 96.71 ± 2.26%
[4]; 2.5 μM
  Percentage of CCK-8 in a model group (%): 97.49 ± 1.35%
[4]; 5 μM
  Percentage of CCK-8 in a model group (%): 89.87 ± 3.68%
